Assay results as given in patent publication US10934253B2, “Therapeutic compounds and methods” (UNIVERSITY OF TASMANIA, priority 2017, dated 2021).

Experiments:
HepG2 cells [1] = assay: Acute ATP rescue assay (impaired mitochondrial function, rotenone); type: cell-based; settings: for ATP rescue (in words): HepG2, rotenone, comment on Table 4
Protocol: HepG2 cells were seeded at a density of 5000 cells per well in a 96-well plate and incubated for 24 hours in DMEM with 0.3 g/l glucose, 10% FBS and Penicillin-Streptomycin-Glutamine. Cells were treated with 1 μM quinones in presence or absence of rotenone (10 μM), for 60 minutes in glucose-free DMEM ATP levels were quantified using luminescence from the ATP-dependent enzymatic oxidation of luciferin by luciferase. Cells were lysed in a volume of 40 μl (4 mM EDTA, 0.2% Triton X-100) for five minutes at room temperature (RT) on an orbital shaker at 200 rpm. […] Luminescence was quantified immediately using a multimode plate reader (Fluoroscan Ascent, Thermo Scientific). ATP levels were standardized to protein levels using a commercial BCA assay (Protein DC; BioRad) and changes were calculated as percentage relative to levels of DMSO-treated control cells. Data is expressed as % ATP compared to the untreated (no-rotenone) control.
Vitamin K, menadione and idebenone were used as comparative controls. DMSO was used as a control.

HepG2 cells [2] = assay: Extracellular lactate levels, enzyme-linked colorimetric assay; type: cell-based; settings: HepG2 culture medium; for Extracellular lactate [% control]: 25 mM glucose, supernatant after 48 h, standardized to protein; for Effect on lactate production (in words): comment on the lactate table
Protocol: Lactate concentrations in culture medium were determined by an enzyme-linked colorimetric assay. Briefly, 150,000 HepG2 cells were seeded in normal growth media (DMEM, 10% FCS, Pen/Strep) in each well of a 6-well plate (Life Science, USA) and incubated for 24 h. The media was replaced with growth media containing (25 mM glucose,) with and without test compounds. Three untreated wells containing only cells were considered the experimental baseline control and all compounds were tested in three different wells simultaneously. Supernatants were collected after 48 h and transferred into 96-well format. After the addition of 90 μl of reaction buffer (10 mM KH2PO4 pH 7.8, 1 mg/ml BSA, 0.5 mM PMS, 2 mM EDTA, 0.6 mM DCPIP, 0.8 mM NAD+, 5 U/ml glutamate-pyruvate-transaminase, 1.5 mM glutamate, 12.5 U/ml lactate dehydrogenase) the plate was incubated at 30° C. inside a multimode plate reader (Multiscan Go, Thermo Scientific) and absorbance was measured at 600 nm over a period of 100 minutes. A standard curve was generated using media spiked with known lactate concentrations. Finally, protein levels were quantified and the lactate concentration of each well was standardized to its protein content and was then expressed as % of control.
The extent of lactate reduction in the cell culture media by the test compounds of the subject invention and the Comparative Compounds vitamin K, menadione and idebenone is shown below in Table 6.

HepG2 cells [3] = assay: Rescue of cell viability in the presence of a mitochondrial inhibitor (rotenone 1 μM); type: cell-based; settings: for viability at 10 µM: Homo sapiens
Protocol: (§1) Cytoprotection of HepG2 cells by naphthoquinones was quantified in the presence of the mitochondrial toxin, rotenone. Briefly, HepG2 cells were seeded in 96-well plates at 5000 cells/well in DMEM with 0.3 g/l glucose, 10% FBS and Penicillin-Streptomycin-Glutamine. After overnight incubation under standard conditions, cells were treated with the test compounds (10 μM) for 2 days before cells were challenged with 1 μM rotenone in the presence of 10 μM test compounds in Hank's balanced salt solution (HBSS) for 6 hours. This was followed by post-incubation for an additional 18 hours with only 10 μM test compounds in HBSS. For measurement of cell viability, cells were washed with 100 μL PBS twice and then lysed using 40 μL lysis solution (4 mM EDTA, 0.2% Triton X-100) for 5 min at room temperature (RT) on an orbital shaker at 200 rpm. Then 10 μL of the lysate was mixed with 90 μL of enzyme-substrate mixture (as described above) in a white 96 well plate and luminescence was measured immediately using a plate-reader (Fluoroscan Ascent, Thermo Scientific). The data is expressed as % viability compared to the untreated (no-rotenone) control.
The extent of protection of cellular viability against a rotenone challenge of representative compounds of Formula (I) is shown below in Table 5. Vitamin K, Menadione and Idebenone were used as comparative controls. DMSO was used as a control.

HepG2 cells [4] = assay: Cell viability in the presence of a mitochondrial inhibitor (rotenone 10 μM); type: cell-based; settings: for viability at 10 µM: Homo sapiens, HepG2, 48 h, read-out: CELL VIABILITY [%]
Protocol: as §1
The cytoprotective effects of representative compounds of Formula (I) were further examined in vitro in response to rotenone toxicity at (10 μM). […] Cells were treated with the representative compounds of Formula (I) compounds (10 μM) for 2 days before cells were challenged with 10 μM rotenone.
Vitamin K, Menadione and Idebenone were used as comparative controls.

[5] = system: LHON model induced by intravitreal rotenone in C57BL/6 mouse; assay: Leber's hereditary optic neuropathy (LHON) mouse model, optomotor response; type: in vivo; settings: rotenone in left eye, 200 mg/kg orally in food
Protocol: FIG. 5: Efficacy of representative compounds of Formula (I) in leber's hereditary optic neuropathy (LHON) mouse model. LHON induced by rotenone injection in the left eye (5 μM) in C57BL/6 mouse model (Refer to Heitz, F. D et al. (2012). PLoS One., 7(9), e45182). […] Representative compounds (UTA 37 and UTA 77) and idebenone administered at 200 mg/kg over the observation period.
LHON model was induced by intravitreal injection of rotenone into the left eye in C57BL/6 mouse model as described by Heitz et al. 2012. Representative compounds (UTA 37 and UTA 77) and idebenone administered at 200 mg/kg over the observation period. Vision loss was measured by assessing number of head turns.
C57BL/6 mice (male, 8-11 weeks of age, average body weight≈25 g) were used in accordance with the Australian code for the use of animals for scientific purposes and under the required animal ethics approval from the University of Tasmania (UTAS) Animal Ethics Committee (Approval number A0016080). Animals were given at least seven days to acclimatise to the animal facility to reduce stress induced by transportation before being used for behavioural testing. All mice were supplied orally with test compounds by mixing test compounds into individual daily food portions as described previously (Heitz, F. D. et al. (2012). PLoS One., 7(9), e45182). […]

HepG2 cells [6] = assay: ATP rescue in the presence of a mitochondrial inhibitor (rotenone 10 μM); type: cell-based; settings: compounds 10 uM for 2 days, then 10 μM rotenone challenge
Protocol: The extent of ATP rescue of representative compounds of Formula (I) were further examined in vitro in response to rotenone toxicity at (10 μM). […] Cells were treated with the representative compounds of Formula (I) compounds (10 μM) for 2 days before cells were challenged with 10 μM rotenone.

| Compound | ATP rescue (in words) (HepG2 cells [1]) | activity at 1 µM (HepG2 cells [1]; Homo sapiens, 1 h, HepG2, 1 μM quinones with rotenone 10 μM, 60 minutes, glucose-free DMEM, % ATP compared to untreated (no-rotenone) control) | Extracellular lactate [% control] (HepG2 cells [2]) | Effect on lactate production (in words) (HepG2 cells [2]) | viability at 10 µM (HepG2 cells [3]; HepG2) | viability at 10 µM (HepG2 cells [4]) | melting point | Protection of visual acuity (head turns, optomotor response; in words) [5] | ATP rescue [%] (HepG2 cells [1]; HepG2, 1 μM quinones with rotenone 10 μM, 60 minutes, glucose-free DMEM, % ATP compared to untreated (no-rotenone) control) | Protection of cell viability (in words) (HepG2 cells [3]; HepG2, rotenone, comment on Table 5) | Viability [%] (HepG2 cells [3]; HepG2, 10 μM test compound 2 days, 1 μM rotenone challenge 6 hours, 18 hours post-incubation, % of untreated (no-rotenone) control) | CELL VIABILITY [%] (HepG2 cells [4]; HepG2, compounds 10 uM for 2 days, then 10 μM rotenone challenge) | % ATP RESCUE (HepG2 cells [6]) |
| --- | --- | --- | --- | --- | --- | --- | --- | --- | --- | --- | --- | --- | --- |
| CC1=CC(=O)c2ccccc2C1=O [Menadione, reference compound] | no or minor effects | 30.6% | 163.3 % control | increase lactate concentrations | 64% | 64% | – | – | – | – | – | – | – |
| CC1=C(CCCCCCCCCCO)C(=O)c2ccccc2C1=O [UTA #2, 2-(10-Hydroxydecyl)-3 methyl-1,4-naphthoquinone] | – | – | – | – | – | 68.9% | 74 to 75 °C | – | – | – | – | – | – |
| CC1=C(CCCC(=O)N[C@@H](Cc2ccccc2)C(=O)O)C(=O)c2ccccc2C1=O [UTA #37, (S)-2-(4-(3-methyl-1,4-naphthoquinone-2-yl)butanamido)-3-phenylpropanoic Acid] | – | – | – | – | 100% | 100% | – | Statistically significant protection of visual acuity | – | – | – | – | – |
| Vitamin K [reference compound] | no or minor effects | – | 92.0 % control | slight but non-significant effect | – | – | – | – | 3.5% | no protective effect | 14.5% | 14.5% | 3.5% |
